Measured values: PubChem BioAssay AID248 (DTP/NCI, 2004)
“And” between values parts separate entries of the source, which are not always exact repeats. Equal entries are not always repeated. Toxic doses and inconclusive results are not listed. Cut-off read from the data, not from the text of the source: active = T/C of 150% or more; inactive = T/C below 125%. Bridge positions count the residues as written; N and C are the ends. Square brackets hold non-standard residues; d marks the D form. Peptide text beside a SMILES is read from it. I, II: the chains in the order shown. * marks the point of attachment. Quinoxaline2carbonyl = O=C(c1cnc2ccccc2n1)*; NMeV = CN[CH](C(=O)O)C(C)C; NMeC = CN[CH](CS)C(=O)O

System: L1210 leukemia ip in BDF1 mice, survival T/C
Assay: NCI In Vivo Anticancer Drug Screen. Data for tumor model L1210 Leukemia (intraperitoneal) in B6D2F1 (BDF1) mice
Conditions: endpoint: mean survival time, higher = longer survival
How it was run: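 Antitumor effect is assessed in tumor-bearing animals. Survival in the compound arm is compared with a vehicle-dosed control arm and expressed as their quotient.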

[1] = dose: 100.0 mg/kg/injection, schedule: Q04DX003 (ip), vehicle: Klucel (hydroxypropylcellulose) (HPC)
[2] = dose: 200.0 mg/kg/injection, schedule: Q04DX003 (ip), vehicle: Klucel (hydroxypropylcellulose) (HPC)
[3] = dose: 400.0 mg/kg/injection, schedule: Q04DX003 (ip), vehicle: Klucel (hydroxypropylcellulose) (HPC)
[4] = dose: 25.0 mg/kg/injection, schedule: Q01DX009 (ip), vehicle: saline
[5] = dose: 50.0 mg/kg/injection, schedule: Q01DX009 (ip), vehicle: saline
[6] = dose: 100.0 mg/kg/injection, schedule: Q01DX001 (ip), vehicle: carboxymethylcellulose (CMC)
[7] = dose: 200.0 mg/kg/injection, schedule: Q01DX001 (ip), vehicle: carboxymethylcellulose (CMC)
[8] = dose: 400.0 mg/kg/injection, schedule: Q01DX001 (ip), vehicle: carboxymethylcellulose (CMC)
[9] = dose: 100.0 mg/kg/injection, schedule: Q04DX003 (ip), vehicle: saline
[10] = dose: 200.0 mg/kg/injection, schedule: Q04DX003 (ip), vehicle: saline
[11] = dose: 100.0 mg/kg/injection, schedule: Q01DX009 (ip), vehicle: Klucel (hydroxypropylcellulose) (HPC)
[12] = dose: 50.0 mg/kg/injection, schedule: Q01DX001 (ip), vehicle: saline
[13] = dose: 100.0 mg/kg/injection, schedule: Q01DX001 (ip), vehicle: saline
[14] = dose: 200.0 mg/kg/injection, schedule: Q01DX001 (ip), vehicle: saline
[15] = dose: 400.0 mg/kg/injection, schedule: Q01DX001 (ip), vehicle: saline
[16] = dose: 100.0 mg/kg/injection, schedule: Q01DX009 (ip), vehicle: saline
[17] = dose: 200.0 mg/kg/injection, schedule: Q01DX009 (ip), vehicle: saline
[18] = dose: 100.0 mg/kg/injection, schedule: Q01DX001 (ip), vehicle: saline with Tween-80
[19] = dose: 200.0 mg/kg/injection, schedule: Q01DX001 (ip), vehicle: saline with Tween-80

Measured: T/C

CC1NC(=O)C(NC(=O)c2cnc3ccccc3n2)COC(=O)C(C(C)C)N(C)C(=O)C2CSSCC(C(=O)N(C)C(C(C)C)C(=O)OCC(NC(=O)c3cnc4ccccc4n3)C(=O)NC(C)C(=O)N2C)N(C)C1=O (stereo unspecified) (I: Quinoxaline2carbonyl-SA[NMeC][NMeV] / II: Quinoxaline2carbonyl-SA[NMeC][NMeV]; ester I:1-II:C, I:C-II:1; disulfide I:3-II:3; configuration not given here)
inactive: dose: 12.5 micrograms/kg/injection, schedule: Q01DX009 (ip), vehicle: other 106 % of control | dose: 25.0 micrograms/kg/injection, schedule: Q01DX009 (ip), vehicle: other 116 % of control | dose: 50.0 micrograms/kg/injection, schedule: Q01DX009 (ip), vehicle: other 119 % of control | dose: 100.0 micrograms/kg/injection, schedule: Q01DX009 (ip), vehicle: other 122 % of control

COc1c(Cl)c(Cl)c(Cl)c(Cl)c1NC(C)=O
inactive: dose: 100.0 mg/kg/injection, schedule: Q01DX001 (ip), vehicle: acetone 102 % of control | dose: 200.0 mg/kg/injection, schedule: Q01DX001 (ip), vehicle: acetone 100 % of control | dose: 400.0 mg/kg/injection, schedule: Q01DX001 (ip), vehicle: acetone 94 % of control

O=P1(Cc2ccccc2)C(c2ccccc2)=C(O)CC1c1ccccc1 (stereo unspecified)
inactive: [1] 101 % of control | [2] 99 % of control | [3] 89 % of control

CC1=C2CCC(C)C23C2C(=O)OC(=O)C2C1C1C(=O)OC(=O)C13 (stereo unspecified)
inactive: dose: 12.5 mg/kg/injection, schedule: Q01DX009 (ip), vehicle: saline 107 % of control | [4] 102 % of control | [5] 103 % of control

C=CCC(CC=C)(C(N)=O)c1ccc(OC)cc1
inactive: [6] 100 % of control | [7] 97 % of control | [8] 111 % of control

N\C([S-])=N/N=C\C(=N/N=C(\N)[S-])C(O)C(O)C(O)CO.[Pd+2] (stereo unspecified)
inactive: [9] 93 % of control | [10] 91 % of control

O=C(COc1ccccc1Cl)Nc1cccnc1
inactive: dose: 100.0 mg/kg/injection, schedule: Q01DX001 (ip), vehicle: Klucel (hydroxypropylcellulose) (HPC) 113 % of control | dose: 200.0 mg/kg/injection, schedule: Q01DX001 (ip), vehicle: Klucel (hydroxypropylcellulose) (HPC) 103 % of control | dose: 400.0 mg/kg/injection, schedule: Q01DX001 (ip), vehicle: Klucel (hydroxypropylcellulose) (HPC) 103 % of control

CCCCCCCCCCC(=O)CCC
inactive: dose: 50.0 mg/kg/injection, schedule: Q01DX009 (ip), vehicle: Klucel (hydroxypropylcellulose) (HPC) 92 % of control | [11] 97 % of control | [1] 95 % of control and 98 % of control | [2] 90 % of control | [3] 95 % of control and 100 % of control

C(=N\Nc1nnc(N/N=C/c2cccc(OCc3ccccc3)c2)c2ccccc12)/c1cccc(OCc2ccccc2)c1
inactive: [12] 101 % of control | [13] 95 % of control | [14] 92 % of control | [15] 97 % of control

CNCCN1CCC(Cc2ccccc2)CC1
inactive: [5] 112 % of control | [16] 102 % of control | [17] 121 % of control

COC(=O)C(Br)C(Br)c1cc(OC)c(OC)c(OC)c1 (stereo unspecified)
inactive: [6] 89 % of control | [7] 93 % of control | [8] 103 % of control

Cn1nnc(CCCl)n1
inactive: [13] 110 % of control | [14] 91 % of control | [15] 95 % of control

C1CCC2C(C1)CCC1CCCCC12 (stereo unspecified)
inactive: dose: 62.5 mg/kg/injection, schedule: Q01DX001 (ip), vehicle: carboxymethylcellulose (CMC) 100 % of control | dose: 125.0 mg/kg/injection, schedule: Q01DX001 (ip), vehicle: carboxymethylcellulose (CMC) 100 % of control | dose: 250.0 mg/kg/injection, schedule: Q01DX001 (ip), vehicle: carboxymethylcellulose (CMC) 96 % of control | dose: 500.0 mg/kg/injection, schedule: Q01DX001 (ip), vehicle: carboxymethylcellulose (CMC) 102 % of control

Nc1ccc2ncccc2c1
inactive: [4] 97 % of control | [5] 93 % of control | [16] 105 % of control and 90 % of control | dose: 100.0 mg/kg/injection, schedule: Q04DX002 (ip), vehicle: alcohol 96 % of control | [9] 94 % of control | [17] 90 % of control | dose: 200.0 mg/kg/injection, schedule: Q04DX002 (ip), vehicle: alcohol 101 % of control | [10] 96 % of control | dose: 400.0 mg/kg/injection, schedule: Q04DX002 (ip), vehicle: alcohol 109 % of control | dose: 400.0 mg/kg/injection, schedule: Q04DX003 (ip), vehicle: saline 107 % of control

CCNS(=O)(=O)O
inactive: dose: 25.0 mg/kg/injection, schedule: Q01DX001 (ip), vehicle: saline 98 % of control | [12] 104 % of control | [13] 107 % of control and 120 % of control | [14] 102 % of control | [15] 105 % of control

CSc1nc(N)c(C#N)cc1C#N
inactive: dose: 100.0 mg/kg/injection, schedule: Q01DX009 (ip), vehicle: saline with Tween-80 88 % of control | dose: 200.0 mg/kg/injection, schedule: Q01DX009 (ip), vehicle: saline with Tween-80 88 % of control | dose: 400.0 mg/kg/injection, schedule: Q01DX009 (ip), vehicle: saline with Tween-80 88 % of control

CC(C)N(CSc1ccc([N+](=O)[O-])cc1)CSc1ccc([N+](=O)[O-])cc1
inactive: [13] 100 % of control | [14] 96 % of control | [15] 98 % of control

Oc1ccc(-c2nnc(-c3ccc(O)cc3)nn2)cc1
inactive: dose: 100.0 mg/kg/injection, schedule: Q04DX002 (ip), vehicle: Klucel (hydroxypropylcellulose) (HPC) 91 % of control | dose: 200.0 mg/kg/injection, schedule: Q04DX002 (ip), vehicle: Klucel (hydroxypropylcellulose) (HPC) 94 % of control | dose: 400.0 mg/kg/injection, schedule: Q04DX002 (ip), vehicle: Klucel (hydroxypropylcellulose) (HPC) 102 % of control

CS(=O)(=O)OCCC#N
inactive: [5] 103 % of control | [16] 101 % of control | dose: 100.0 mg/kg/injection, schedule: Q04DX003 (ip), vehicle: alcohol 102 % of control | dose: 200.0 mg/kg/injection, schedule: Q04DX003 (ip), vehicle: alcohol 93 % of control

O=C(O)c1ccsc1C(=O)c1ccccc1
inactive: [18] 105 % of control | [19] 102 % of control | dose: 400.0 mg/kg/injection, schedule: Q01DX001 (ip), vehicle: saline with Tween-80 97 % of control

O=C(NCCCl)NCc1ccccc1
inactive: [1] 103 % of control | [2] 107 % of control | [3] 113 % of control

CC(=O)Nc1cc2c(cc1Cl)-c1ccccc1C2Br (stereo unspecified)
inactive: [1] 96 % of control | [2] 94 % of control | [3] 96 % of control

CCC(=O)Nc1cc(C)ccc1Cl
inactive: [11] 101 % of control | dose: 200.0 mg/kg/injection, schedule: Q01DX009 (ip), vehicle: Klucel (hydroxypropylcellulose) (HPC) 103 % of control | dose: 400.0 mg/kg/injection, schedule: Q01DX009 (ip), vehicle: Klucel (hydroxypropylcellulose) (HPC) 103 % of control

O=[N+]([O-])c1ccc2c3c(cccc13)CC2
inactive: [13] 102 % of control | [14] 96 % of control | [15] 90 % of control

CC(=O)C(C(=O)NCc1ccccc1)C(c1cccc([N+](=O)[O-])c1)C(C(C)=O)C(=O)NCc1ccccc1 (stereo unspecified)
inactive: dose: 25.6 mg/kg/injection, schedule: Q04DX002 (ip), vehicle: saline with Tween-80 95 % of control | dose: 64.0 mg/kg/injection, schedule: Q04DX002 (ip), vehicle: saline with Tween-80 95 % of control | dose: 160.0 mg/kg/injection, schedule: Q04DX002 (ip), vehicle: saline with Tween-80 95 % of control | dose: 200.0 mg/kg/injection, schedule: Q04DX003 (ip), vehicle: saline with Tween-80 87 % of control | dose: 400.0 mg/kg/injection, schedule: Q04DX002 (ip), vehicle: saline with Tween-80 95 % of control | dose: 400.0 mg/kg/injection, schedule: Q04DX003 (ip), vehicle: saline with Tween-80 87 % of control

CCOC(=O)Nc1cc(NCCCCc2ccccc2)c(N)c(N)n1
inactive: [18] 101 % of control | [19] 102 % of control

NNc1ncnc(SCc2ccccc2)c1N
inactive: dose: 50.0 mg/kg/injection, schedule: Q01DX001 (ip), vehicle: carboxymethylcellulose (CMC) 93 % of control | [6] 98 % of control | [7] 89 % of control | [8] 89 % of control

Nc1cc(Nc2ccc(S(N)(=O)=O)cc2)nc(N)n1
inactive: [1] 93 % of control | [2] 97 % of control | [3] 93 % of control
